Assay results: patent US20230138851A1, “NOVEL ALKYNE DERIVATIVES” (CARNA BIOSCIENCES, INC., priority 2020, published 2023)

Legend:
Assay type in all cases: biochemical
DYRK1A = biological target: T1, DYRK1A (Homo sapiens, UniProt Q13627); experiment: Inhibition test on activity of DYRK family, mobility shift assay (MSA), DYRK1A; settings: ATP 100 μM, FITC-labeled DYRKtide peptide substrate, room temperature 1 hour; for IC50: read-out: Inhibitory Activity 1a (IC50 against DYRK1A)
T1 construct: purchased Carna Biosciences, Inc. 04-130
Outline: (§1)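 FITC-DYRKtide phosphorylation in 20 mM HEPES pH 7.5 with MgCl2; ATP in the substrate mix was 100 μM (DYRK1A), 200 μM (DYRK1B), 40 μM (DYRK2) or 20 μM (DYRK3). Reactions ran 1 h at room temperature; inhibition from P/(P+S) versus blank and DMSO control, IC50 by regression on log concentration.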

DYRK2 = biological target: T2, DYRK2 (Homo sapiens, UniProt Q92630); experiment: Inhibition test on activity of DYRK family, mobility shift assay (MSA), DYRK2; settings: ATP 40 μM, FITC-labeled DYRKtide peptide substrate, room temperature 1 hour; for IC50: read-out: Inhibitory Activity 2 (IC50 against DYRK2)
T2 construct: purchased Carna Biosciences, Inc. 04-132
T2 sequence (Q92630 1-601): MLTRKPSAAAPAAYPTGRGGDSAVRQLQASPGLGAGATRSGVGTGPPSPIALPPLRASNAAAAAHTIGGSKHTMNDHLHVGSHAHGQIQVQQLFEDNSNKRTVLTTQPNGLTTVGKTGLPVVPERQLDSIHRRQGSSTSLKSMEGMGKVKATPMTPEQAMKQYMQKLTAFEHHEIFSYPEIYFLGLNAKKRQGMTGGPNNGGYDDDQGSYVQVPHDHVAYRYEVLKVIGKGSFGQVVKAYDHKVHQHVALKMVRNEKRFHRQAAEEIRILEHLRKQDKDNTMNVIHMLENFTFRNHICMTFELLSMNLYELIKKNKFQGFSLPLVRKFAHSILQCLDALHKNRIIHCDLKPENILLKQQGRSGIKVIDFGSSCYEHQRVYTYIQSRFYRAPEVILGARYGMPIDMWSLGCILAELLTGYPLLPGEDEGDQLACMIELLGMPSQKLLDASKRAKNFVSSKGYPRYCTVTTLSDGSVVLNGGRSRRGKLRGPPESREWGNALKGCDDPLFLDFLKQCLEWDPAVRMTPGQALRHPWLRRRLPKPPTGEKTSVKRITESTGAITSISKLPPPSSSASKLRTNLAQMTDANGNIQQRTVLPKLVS
Outline: as §1

DYRK3 = biological target: T3, DYRK3 (Homo sapiens, UniProt O43781); experiment: Inhibition test on activity of DYRK family, mobility shift assay (MSA), DYRK3; settings: ATP 20 μM, FITC-labeled DYRKtide peptide substrate, room temperature 1 hour; for IC50: read-out: Inhibitory Activity 3 (IC50 against DYRK3)
T3 construct: purchased Carna Biosciences, Inc. 04-133
T3 sequence (O43781 1-588): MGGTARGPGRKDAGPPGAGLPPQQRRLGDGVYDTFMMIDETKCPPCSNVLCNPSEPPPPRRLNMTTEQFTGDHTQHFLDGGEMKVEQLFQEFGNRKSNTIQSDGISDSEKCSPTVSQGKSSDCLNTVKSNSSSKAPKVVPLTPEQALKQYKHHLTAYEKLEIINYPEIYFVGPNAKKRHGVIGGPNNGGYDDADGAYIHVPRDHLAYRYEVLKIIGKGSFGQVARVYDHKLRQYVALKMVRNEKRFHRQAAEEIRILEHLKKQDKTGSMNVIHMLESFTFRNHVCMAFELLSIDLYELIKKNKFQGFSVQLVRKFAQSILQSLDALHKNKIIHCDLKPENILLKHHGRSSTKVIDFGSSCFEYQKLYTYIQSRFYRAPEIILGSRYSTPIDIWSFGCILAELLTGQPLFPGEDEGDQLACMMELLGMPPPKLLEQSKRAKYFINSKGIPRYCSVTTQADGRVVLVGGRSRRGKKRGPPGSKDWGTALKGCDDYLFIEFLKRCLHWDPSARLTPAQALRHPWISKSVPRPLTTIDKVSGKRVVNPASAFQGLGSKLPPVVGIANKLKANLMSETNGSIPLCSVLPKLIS
Outline: as §1

Row | Compound | IC50 (DYRK1A) | IC50 (DYRK2) | IC50 (DYRK3) | Inhibitory Activity 1a (IC50 against DYRK1A) (DYRK1A) | Inhibitory Activity 3 (IC50 against DYRK3) (DYRK3) | Inhibitory Activity 2 (IC50 against DYRK2) (DYRK2)
1 | COCC#CC1CNC(=O)N1c1nc2c3c(ccc2s1)OCC3 (racemic) [Example 20, (RS)-1-(7,8-dihydrobenzofuro[4,5-d]thiazol-2-yl)-5-(3-methoxyprop-1-yn-1-yl)imidazolidin-2-one] | 100 to 1000 nM | ≥ 1000 nM | ≥ 1000 nM |  |  | 
2 | CC#C[C@@H]1[C@H](COC)NC(=O)N1c1nc2c3c(ccc2s1)OCC3 (single isomer, unassigned) [Example 74, cis-1-(7,8-dihydrobenzofuro[4,5-d]thiazol-2-yl)-4-(methoxymethyl)-5-(prop-1-yn-1-yl)imidazolidin-2-one] |  | 100 to 1000 nM | 100 to 1000 nM | * * * |  | 
3 | CC#CC1CNC(=O)N1c1nc2c(ccc3ncccc32)s1 (single isomer, unassigned) [Example 36, 5-(prop-1-yn-1-yl)-1-(thiazolo[4,5-f]quinolin-2-yl)imidazolidin-2-one] |  | 100 to 1000 nM | 100 to 1000 nM | * * |  | 
4 | CC#C[C@@H]1[C@H]([C@@H](C)O)NC(=O)N1c1nc2c3c(ccc2s1)OCC3 [Example 82, (4R,5R)-1-(7,8-dihydrobenzofuro[4,5-d]thiazol-2-yl)-4-((R)-1-hydroxyethyl)-5-(prop-1-yn-1-yl)imidazolidin-2-one] |  | 100 to 1000 nM |  | * * * | * * | 
5 | CC#CC1CNC(=O)N1c1nc2c3c(ccc2s1)OCCO3 (single isomer, unassigned) [Example 59, 1-(7,8-dihydro-[1,4]dioxino[2′,3′:5,6]benz[1,2-d]thiazol-2-yl)-5-(prop-1-yn-1-yl)imidazolidin-2-one] | ≥ 1000 nM | ≥ 1000 nM | ≥ 1000 nM |  |  | 
6 | CC#C[C@@H]1[C@H](C)NC(=O)N1c1nc2c3c(ccc2s1)OCO3 [Example 23, (4S,5R)-1-([1,3]dioxolo[4′,5′:5,6]benzo[1,2-d]thiazol-7-yl)-4-methyl-5-(prop-1-yn-1-yl)imidazolidin-2-one] |  | 100 to 1000 nM | 100 to 1000 nM | * * * |  | 
7 | CC#C[C@H]1[C@H]([C@@H](C)O)NC(=O)N1c1nc2c3c(ccc2s1)OCC3 [Example 81, (4R,5S)-1-(7,8-dihydrobenzofuro[4,5-d]thiazol-2-yl)-4-((R)-1-hydroxyethyl)-5-(prop-1-yn-1-yl)imidazolidin-2-one] | 100 to 1000 nM | ≥ 1000 nM | ≥ 1000 nM |  |  | 
8 | C[Si](C)(C)C#CC1CNC(=O)N1c1nc2c3c(ccc2s1)OCC3 (racemic) [Example 11, (RS)-1-(7,8-dihydrobenzofuro[4,5-d]thiazol-2-yl)-5-[(trimethylsilyl)ethynyl]imidazolidin-2-one] |  | 100 to 1000 nM | 100 to 1000 nM | * * |  | 
9 | CC#C[C@H]1[C@H](CO)NC(=O)N1c1nc2c3c(ccc2s1)OCCO3 (single isomer, unassigned) [Example 66, trans-1-(7,8-dihydro-[1,4]dioxino[2′,3′:5,6]benz[1,2-d]thiazol-2-yl)-4-(hydroxymethyl)-5-(prop-1-yn-1-yl)imidazolidin-2-one] | 100 to 1000 nM | ≥ 1000 nM | ≥ 1000 nM |  |  | 
10 | C#CC1CNC(=O)N1c1nc2c3c(ccc2s1)OCC3 (single isomer, unassigned) [Example 14, 1-(7,8-dihydrobenzofuro[4,5-d]thiazol-2-yl)-5-ethynylimidazolidin-2-one] |  | 100 to 1000 nM | 100 to 1000 nM | * * |  | 
11 | O=C1NCC(C#CC2CC2)N1c1nc2c3c(ccc2s1)OCC3 (racemic) [Example 21, (RS)-5-(cyclopropylethynyl)-1-(7,8-dihydrobenzofuro[4,5-d]thiazol-2-yl)imidazolidin-2-one] |  | ≥ 1000 nM | 100 to 1000 nM | * * * |  | 
12 | CC#C[C@@H]1[C@@H](C)NC(=O)N1c1nc2c3c(ccc2s1)OCC3 [Example 16, (4R,5R)-1-(7,8-dihydrobenzofuro[4,5-d]thiazol-2-yl)-4-methyl-5-(prop-1-yn-1-yl)imidazolidin-2-one] |  | ≥ 1000 nM | 100 to 1000 nM | * * * |  | 
13 | CC#C[C@H]1[C@H](CC)NC(=O)N1c1nc2c3c(ccc2s1)OCC3 (single isomer, unassigned) [Example 71, trans-1-(7,8-dihydrobenzofuro[4,5-d]thiazol-2-yl)-4-ethyl-5-(prop-1-yn-1-yl)imidazolidin-2-one] |  | ≥ 1000 nM | 100 to 1000 nM | * * * |  | 
14 | CC#CC1CNC(=O)N1c1nc2c(ccc3ncccc32)s1 (single isomer, unassigned) [Example 34, 5-(prop-1-yn-1-yl)-1-(thiazolo[4,5-f]quinolin-2-yl)imidazolidin-2-one] |  |  |  | * * * | * * | * *
15 | CC#C[C@@H]1[C@H]([C@H](C)O)NC(=O)N1c1nc2c3c(ccc2s1)OCC3 [Example 84, (4R,5R)-1-(7,8-dihydrobenzofuro[4,5-d]thiazol-2-yl)-4-((S)-1-hydroxyethyl)-5-(prop-1-yn-1-yl)imidazolidin-2-one] |  | 100 to 1000 nM | 100 to 1000 nM | * * * |  | 
16 | CC#CC1N(c2nc3c4c(ccc3s2)OCC4)C(=O)NC1(C)C (racemic) [Example 54, (RS)-1-(7,8-dihydrobenzofuro[4,5-d]thiazol-2-yl)-4,4-dimethyl-5-(prop-1-yn-1-yl)imidazolidin-2-one] |  | ≥ 1000 nM | ≥ 1000 nM | * * |  | 
17 | CC#CC1CNC(=O)N1c1nc2c(ccc3nn(C)cc32)s1 (racemic) [Example 51, (RS)-1-(7-methyl-7H-thiazolo[4,5-e]indazol-2-yl)-5-(prop-1-yn-1-yl)imidazolidin-2-one] |  | 100 to 1000 nM | 100 to 1000 nM | * * * |  | 
18 | CC#C[C@H]1[C@H](CN(C)C)NC(=O)N1c1nc2c3c(ccc2s1)OCC3 (single isomer, unassigned) [Example 70, trans-1-(7,8-dihydrobenzofuro[4,5-d]thiazol-2-yl)-4-[(dimethylamino)methyl]-5-(prop-1-yn-1-yl)imidazolidin-2-one] | 100 to 1000 nM | ≥ 1000 nM | ≥ 1000 nM |  |  | 
19 | CC#CC1CNC(=O)N1c1nc2c3c(ccc2s1)OCCO3 (racemic) [Example 55, (RS)-1-(7,8-dihydro-[1,4]dioxyno[2′,3′:5,6]benzo[1,2-d]thiazol-2-yl)-5-(prop-1-yn-1-yl)imidazolidin-2-one] |  | 100 to 1000 nM | 100 to 1000 nM | * * * |  | 
20 | CC#CC1CNC(=O)N1c1nc2c3c(ccc2s1)OCCN3CCN1CCN(C)CC1 (racemic) [Example 44, (RS)-1-{9-[2-(4-methylpiperazin-1-yl)ethyl]-8,9-dihydro-7H-thiazolo[4′,5′:3,4]benz[1,2-b][1,4]oxazin-2-yl}-5-(prop-1-yn-1-yl)imidazolidin-2-one] | ≥ 1000 nM | ≥ 1000 nM | ≥ 1000 nM |  |  | 
21 | CC#C[C@@H]1[C@H](CO)NC(=O)N1c1nc2c3c(ccc2s1)OCC3 (relative stereo) [Example 60, cis-1-(7,8-dihydrobenzofuro[4,5-d]thiazol-2-yl)-4-(hydroxymethyl)-5-(prop-1-yn-1-yl)imidazolidin-2-one] |  | 100 to 1000 nM |  | * * * | * * | 
